Source: PubChem BioAssay (NCI)
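These data come from cells grown in 96-well plates and exposed to compound for 48 hours at five concentrations. Abbreviation: GI50, concentration required for 50% inhibition of growth. TGI: total growth inhibition.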

What was measured:
Assay in all cases: NCI tumour cell line growth inhibition, 48 h
786-0 renal = system: 786-0 renal
A498 renal = system: A498 renal
A549 NSCLC = system: A549 NSCLC
ACHN renal = system: ACHN renal
BT-549 breast = system: BT-549 breast
CAKI-1 renal = system: CAKI-1 renal
CCRF-CEM leukemia = system: CCRF-CEM leukemia
COLO 205 colon = system: COLO 205 colon
DU-145 prostate = system: DU-145 prostate
EKVX NSCLC = system: EKVX NSCLC
HCC-2998 colon = system: HCC-2998 colon
HCT-116 colon = system: HCT-116 colon
HCT-15 colon = system: HCT-15 colon
HL-60(TB) leukemia = system: HL-60(TB) leukemia
HOP-62 NSCLC = system: HOP-62 NSCLC
HOP-92 NSCLC = system: HOP-92 NSCLC
HS 578T breast = system: HS 578T breast
HT29 colon = system: HT29 colon
IGROV1 ovarian = system: IGROV1 ovarian
K-562 leukemia = system: K-562 leukemia
KM12 colon = system: KM12 colon
LOX IMVI melanoma = system: LOX IMVI melanoma
M14 melanoma = system: M14 melanoma
MALME-3M melanoma = system: MALME-3M melanoma
MCF7 breast = system: MCF7 breast
MDA-MB-231 breast = system: MDA-MB-231 breast
MDA-MB-435 = system: MDA-MB-435
MOLT-4 leukemia = system: MOLT-4 leukemia
NCI-H226 lung = system: NCI-H226 lung
NCI-H460 lung = system: NCI-H460 lung
NCI-H522 lung = system: NCI-H522 lung
NCI/ADR-RES ovarian = system: NCI/ADR-RES ovarian
OVCAR-3 ovarian = system: OVCAR-3 ovarian
OVCAR-4 ovarian = system: OVCAR-4 ovarian
OVCAR-5 ovarian = system: OVCAR-5 ovarian
OVCAR-8 ovarian = system: OVCAR-8 ovarian
PC-3 prostate = system: PC-3 prostate
RPMI-8226 leukemia = system: RPMI-8226 leukemia
RXF 393 renal = system: RXF 393 renal
SF-268 CNS = system: SF-268 CNS
SF-295 CNS = system: SF-295 CNS
SF-539 CNS = system: SF-539 CNS
SK-MEL-2 melanoma = system: SK-MEL-2 melanoma
SK-MEL-28 melanoma = system: SK-MEL-28 melanoma
SK-MEL-5 melanoma = system: SK-MEL-5 melanoma
SK-OV-3 ovarian = system: SK-OV-3 ovarian
SN12C renal = system: SN12C renal
SNB-19 CNS = system: SNB-19 CNS
SNB-75 CNS = system: SNB-75 CNS
SR leukemia = system: SR leukemia
SW-620 colon = system: SW-620 colon
T-47D breast = system: T-47D breast
TK-10 renal = system: TK-10 renal
U251 CNS = system: U251 CNS
UACC-257 melanoma = system: UACC-257 melanoma
UACC-62 melanoma = system: UACC-62 melanoma
UO-31 renal = system: UO-31 renal

CN(C)CCCOc1c2ccccc2nc2c1oc1ccc(Cl)cc12
GI50 (786-0 renal): 3.32 µM | TGI (786-0 renal): 15.3 µM | GI50 (A498 renal): 10.4 µM | TGI (A498 renal): 23.6 µM | GI50 (A549 NSCLC): 2.8 µM | TGI (A549 NSCLC): 10.6 µM | GI50 (ACHN renal): 2.2 µM | TGI (ACHN renal): 11.5 µM | GI50 (BT-549 breast): 5.17 µM | TGI (BT-549 breast): 18.5 µM | GI50 (CAKI-1 renal): 2.63 µM | TGI (CAKI-1 renal): 11.3 µM | GI50 (CCRF-CEM leukemia): 4.12 µM | TGI (CCRF-CEM leukemia): 46.1 µM | GI50 (COLO 205 colon): 2.49 µM | TGI (COLO 205 colon): 9.76 µM | GI50 (DU-145 prostate): 4.14 µM | TGI (DU-145 prostate): 14.5 µM | GI50 (EKVX NSCLC): 3.68 µM | TGI (EKVX NSCLC): 14.7 µM | GI50 (HCC-2998 colon): 3.12 µM | TGI (HCC-2998 colon): 13.9 µM | GI50 (HCT-116 colon): 1.87 µM | TGI (HCT-116 colon): 13 µM | GI50 (HCT-15 colon): 3.07 µM | TGI (HCT-15 colon): 12.5 µM | GI50 (HL-60(TB) leukemia): 3.13 µM | TGI (HL-60(TB) leukemia): 14.1 µM | GI50 (HOP-62 NSCLC): 3.66 µM | TGI (HOP-62 NSCLC): 15.5 µM | GI50 (HOP-92 NSCLC): 1.75 µM | TGI (HOP-92 NSCLC): 8.01 µM | GI50 (HS 578T breast): 3.76 µM | TGI (HS 578T breast): 19.7 µM | GI50 (HT29 colon): 2.56 µM | TGI (HT29 colon): 11.7 µM | GI50 (IGROV1 ovarian): 3.61 µM | TGI (IGROV1 ovarian): 13 µM | GI50 (K-562 leukemia): 2.79 µM | TGI (K-562 leukemia): > 100 µM | GI50 (KM12 colon): 4.18 µM | TGI (KM12 colon): 18.5 µM | GI50 (LOX IMVI melanoma): 1.48 µM | TGI (LOX IMVI melanoma): 3.08 µM | GI50 (M14 melanoma): 3.04 µM | TGI (M14 melanoma): 11 µM | GI50 (MALME-3M melanoma): 2.77 µM | TGI (MALME-3M melanoma): 9.64 µM | GI50 (MCF7 breast): 2.88 µM | TGI (MCF7 breast): 10.3 µM | GI50 (MDA-MB-231 breast): 2.64 µM | TGI (MDA-MB-231 breast): 10.5 µM | GI50 (MDA-MB-435): 3.44 µM | TGI (MDA-MB-435): 12.7 µM | GI50 (MOLT-4 leukemia): 3.19 µM | TGI (MOLT-4 leukemia): 14 µM | GI50 (NCI-H226 lung): 3.02 µM | TGI (NCI-H226 lung): 9.95 µM | GI50 (NCI-H460 lung): 3.06 µM | TGI (NCI-H460 lung): 11.6 µM | GI50 (NCI-H522 lung): 2.76 µM | TGI (NCI-H522 lung): 11.1 µM | GI50 (NCI/ADR-RES ovarian): 1.94 µM | TGI (NCI/ADR-RES ovarian): 10.2 µM | GI50 (OVCAR-3 ovarian): 5.2 µM | TGI (OVCAR-3 ovarian): 17.5 µM | GI50 (OVCAR-4 ovarian): 2.42 µM | TGI (OVCAR-4 ovarian): 7.45 µM | GI50 (OVCAR-5 ovarian): 4.04 µM | TGI (OVCAR-5 ovarian): 15.9 µM | GI50 (OVCAR-8 ovarian): 3.28 µM | TGI (OVCAR-8 ovarian): 14.2 µM | GI50 (PC-3 prostate): 3.16 µM | TGI (PC-3 prostate): 12.3 µM | GI50 (RPMI-8226 leukemia): 2.7 µM | TGI (RPMI-8226 leukemia): 7.56 µM | GI50 (RXF 393 renal): 2.58 µM | TGI (RXF 393 renal): 8.7 µM | GI50 (SF-268 CNS): 3.8 µM | TGI (SF-268 CNS): 17 µM | GI50 (SF-295 CNS): 3.82 µM | TGI (SF-295 CNS): 15 µM | GI50 (SF-539 CNS): 3.24 µM | TGI (SF-539 CNS): 13 µM | GI50 (SK-MEL-2 melanoma): 6.35 µM | TGI (SK-MEL-2 melanoma): 18.9 µM | GI50 (SK-MEL-28 melanoma): 4.56 µM | TGI (SK-MEL-28 melanoma): 16.5 µM | GI50 (SK-MEL-5 melanoma): 9.28 µM | TGI (SK-MEL-5 melanoma): 21.3 µM | GI50 (SK-OV-3 ovarian): 4.6 µM | TGI (SK-OV-3 ovarian): 16.7 µM | GI50 (SN12C renal): 3.01 µM | TGI (SN12C renal): 14.1 µM | GI50 (SNB-19 CNS): 3.93 µM | TGI (SNB-19 CNS): 16.3 µM | GI50 (SNB-75 CNS): 2.6 µM | TGI (SNB-75 CNS): 11.8 µM | GI50 (SR leukemia): 3.02 µM | TGI (SR leukemia): 12.2 µM | GI50 (SW-620 colon): 1.92 µM | TGI (SW-620 colon): 10.1 µM | GI50 (T-47D breast): 4.92 µM | TGI (T-47D breast): 20.7 µM | GI50 (TK-10 renal): 5.16 µM | TGI (TK-10 renal): 17.1 µM | GI50 (U251 CNS): 3.36 µM | TGI (U251 CNS): 13.7 µM | GI50 (UACC-257 melanoma): 3.44 µM | TGI (UACC-257 melanoma): 13.3 µM | GI50 (UACC-62 melanoma): 5.11 µM | TGI (UACC-62 melanoma): 19.1 µM | GI50 (UO-31 renal): 2.32 µM | TGI (UO-31 renal): 12.1 µM
